Laboratory results: patent US20070026080A1, “Manufacturing process for tigecycline” (Wyeth, priority 2005, published 2007)

Experiment: Strength and degradation profile of tigecycline 20 mg/mL bulk solutions by reversed phase HPLC (effect of temperature, time, pH, dissolved oxygen; Runs A to O)
Type: physicochemical
Conditions: 8° C.
Protocol: The contents of the sample vials are dissolved in diluent. The sample solution is diluted, if necessary, and chromatographed on a reversed phase column using gradient elution. Impurities are determined by comparing the impurity peak areas in the sample preparation chromatogram to the average area of tigecycline peaks in the standard preparation chromatograms obtained concomitantly.
Chromatographic Column—Length about 15 cm, inside diameter about 4.6 mm, packed with Inertsil ODS2, 5 μm size particles or equivalent.
Detector—Ultraviolet spectrophotometric detector capable of operating at 248 nm with a sensitivity of about 0.5 absorbance units full scale.
The results of additional studies to investigate the effect of processing parameters such as temperature, time, and dissolved oxygen content on the purity profile of tigecycline solutions using the following materials, methods and procedures are presented in Tables A to O.
The experiments were run in plastic glove bags under normal laboratory light conditions. Plastic glove boxes will be used to control the headspace of the beakers. The batch size was 200 mL. • 1. Prepare the glove bag with a mixture of nitrogen and air to achieve an oxygen level in the solution as per the design. • 2. Place the jacketed beaker on the magnetic stirrer. Connect it to the cooler. Set the cooler to the desired set point. • 3. Add 200 mL of SWFI in to the beaker. Allow equilibrating. Measure the temperature and oxygen content. When it reaches the desired condition, add accurately weighed API and mix until dissolved. If necessary use spatula to aid dissolution. For pH adjustments, use 4 mL of either 0.1N NaOH or 0.1N HCl and 196 mL of WFI for manufacture. • 4. After complete dissolution, Transfer about 5.5 mL of Solution in vials and stopper them. These vials will be stoppered at the appropriate headspace conditions. Place the vials in appropriate temperature conditions. • 5. Sample the vials at 1, 4, 8, 10, 12 and 24 hours. Send the samples for analysis. Freeze the 10, 12 and 24 samples at −20° C. for analysis the following day. • 6. Measure pH and record color of the solution at each time point. Results
The 1-hour samples were taken directly from the beakers. Samples for later time points were collected in stoppered vials processed in the atmosphere of the bag in order to simulate the headspace conditions then placed in water baths or refrigerator to maintain there respective temperature conditions. This was done to maintain safety in the lab. Disposable plastic glove bags require constant flow of a mixture of nitrogen and air to maintain headspace oxygen level that will result in the desired dissolved oxygen (DO) content in the sample. The pH of samples was measured at each sample points.
Strength and degradation profile was analyzed by HPLC as described above. […] Degradation was slightly higher at higher temperature condition.

[1] = Run #M, pH 7.7, Oxygen = 0.1 mg/L, 10 Hrs
[2] = Run #M, pH 7.7, Oxygen = 0.1 mg/L, 12 Hrs
[3] = Run #M, pH 7.7, Oxygen = 0.1 mg/L, 24 Hrs
[4] = Run #N, pH 8.2, Oxygen = 0.1 mg/L, 1 Hrs
[5] = Run #N, pH 8.2, Oxygen = 0.1 mg/L, 1R Hrs
[6] = Run #N, pH 8.2, Oxygen = 0.1 mg/L, 4 Hrs

## CN(C)c1cc(NC(=O)CNC(C)(C)C)c(O)c2c1C[C@H]1C[C@H]3[C@H](N(C)C)C(O)=C(C(N)=O)C(=O)[C@@]3(O)C(O)=C1C2=O [Tigecycline]
[1]
  RRT 1.12: BRL (BRL means below reporting limit (meaning less than 0.05% of tigecycline peak))
  RRT 1.45: 0.07%
  RRT 1.58: BRL (BRL means below reporting limit (meaning less than 0.05% of tigecycline peak))
  RRT 1.64 Mino: 0.09%
  RRT 1.67 MW = 556: (<0.05) %
  RRT 1.85 MW = 597: 0.08%
  Strength: 19.240 mg/mL
  Total: 0.71%
[2]
  RRT 0.12 MW = 633: BRL (BRL means below reporting limit (meaning less than 0.05% of tigecycline peak))
  RRT 0.23 MW = 572: BRL (BRL means below reporting limit (meaning less than 0.05% of tigecycline peak))
  RRT 0.50 MW = 601: BRL (BRL means below reporting limit (meaning less than 0.05% of tigecycline peak))
  RRT 0.55 MW = 583: 0.07%
  RRT 0.58: BRL (BRL means below reporting limit (meaning less than 0.05% of tigecycline peak))
  RRT 0.64 9-Amino: BRL (BRL means below reporting limit (meaning less than 0.05% of tigecycline peak))
  RRT 0.74 Epimer: 0.27%
  RRT 0.76: 0.05%
  RRT 0.78 MW = 557: BRL (BRL means below reporting limit (meaning less than 0.05% of tigecycline peak))
  RRT 1.12: BRL (BRL means below reporting limit (meaning less than 0.05% of tigecycline peak))
  RRT 1.45: 0.07%
  RRT 1.58: BRL (BRL means below reporting limit (meaning less than 0.05% of tigecycline peak))
  RRT 1.64 Mino: 0.12%
  RRT 1.67 MW = 556: 0.07%
  RRT 1.85 MW = 597: 0.08%
  Strength: 19.240 mg/mL
  Total: 0.73%
[3]
  RRT 0.12 MW = 633: BRL (BRL means below reporting limit (meaning less than 0.05% of tigecycline peak))
  RRT 0.23 MW = 572: BRL (BRL means below reporting limit (meaning less than 0.05% of tigecycline peak))
  RRT 0.50 MW = 601: BRL (BRL means below reporting limit (meaning less than 0.05% of tigecycline peak))
  RRT 0.55 MW = 583: BRL (BRL means below reporting limit (meaning less than 0.05% of tigecycline peak))
  RRT 0.58: 0.08%
  RRT 0.64 9-Amino: BRL (BRL means below reporting limit (meaning less than 0.05% of tigecycline peak))
  RRT 0.74 Epimer: 0.29%
  RRT 0.76: BRL (BRL means below reporting limit (meaning less than 0.05% of tigecycline peak))
  RRT 0.78 MW = 557: BRL (BRL means below reporting limit (meaning less than 0.05% of tigecycline peak))
  RRT 1.12: BRL (BRL means below reporting limit (meaning less than 0.05% of tigecycline peak))
  RRT 1.45: 0.09%
  RRT 1.58: BRL (BRL means below reporting limit (meaning less than 0.05% of tigecycline peak))
  RRT 1.64 Mino: 0.09%
  RRT 1.67 MW = 556: (<0.05) %
  RRT 1.85 MW = 597: 0.08%
  Strength: 19.193 mg/mL
  Total: 0.62%
Run #N, pH 8.2, Oxygen = 0.1 mg/L
  RRT 1.12: BRL (BRL means below reporting limit (meaning less than 0.05% of tigecycline peak))
[4]
  RRT 0.12 MW = 633: BRL (BRL means below reporting limit (meaning less than 0.05% of tigecycline peak))
  RRT 0.23 MW = 572: BRL (BRL means below reporting limit (meaning less than 0.05% of tigecycline peak))
  RRT 0.50 MW = 601: BRL (BRL means below reporting limit (meaning less than 0.05% of tigecycline peak))
  RRT 0.55 MW = 583: BRL (BRL means below reporting limit (meaning less than 0.05% of tigecycline peak))
  RRT 0.58: 0.07%
  RRT 0.64 9-Amino: BRL (BRL means below reporting limit (meaning less than 0.05% of tigecycline peak))
  RRT 0.74 Epimer: 0.20%
  RRT 0.76: BRL (BRL means below reporting limit (meaning less than 0.05% of tigecycline peak))
  RRT 0.78 MW = 557: BRL (BRL means below reporting limit (meaning less than 0.05% of tigecycline peak))
  RRT 1.12: BRL (BRL means below reporting limit (meaning less than 0.05% of tigecycline peak))
  RRT 1.45: 0.07%
  RRT 1.58: BRL (BRL means below reporting limit (meaning less than 0.05% of tigecycline peak))
  RRT 1.64 Mino: (<0.05) %
  RRT 1.67 MW = 556: BRL (BRL means below reporting limit (meaning less than 0.05% of tigecycline peak))
  RRT 1.85 MW = 597: 0.11%
  Strength: 19.343 mg/mL
  Total: 0.46%
[5]
  RRT 0.12 MW = 633: BRL (BRL means below reporting limit (meaning less than 0.05% of tigecycline peak))
  RRT 0.23 MW = 572: BRL (BRL means below reporting limit (meaning less than 0.05% of tigecycline peak))
  RRT 0.50 MW = 601: BRL (BRL means below reporting limit (meaning less than 0.05% of tigecycline peak))
  RRT 0.55 MW = 583: 0.06%
  RRT 0.58: 0.06%
  RRT 0.64 9-Amino: BRL (BRL means below reporting limit (meaning less than 0.05% of tigecycline peak))
  RRT 0.74 Epimer: 0.29%
  RRT 0.76: 0.05%
  RRT 0.78 MW = 557: BRL (BRL means below reporting limit (meaning less than 0.05% of tigecycline peak))
  RRT 1.45: 0.09%
  RRT 1.58: BRL (BRL means below reporting limit (meaning less than 0.05% of tigecycline peak))
  RRT 1.64 Mino: 0.08%
  RRT 1.67 MW = 556: BRL (BRL means below reporting limit (meaning less than 0.05% of tigecycline peak))
  RRT 1.85 MW = 597: 0.09%
  Strength: 19.415 mg/mL
  Total: 0.72%
[6]
  RRT 0.12 MW = 633: BRL (BRL means below reporting limit (meaning less than 0.05% of tigecycline peak))
  RRT 0.23 MW = 572: BRL (BRL means below reporting limit (meaning less than 0.05% of tigecycline peak))
  RRT 0.50 MW = 601: BRL (BRL means below reporting limit (meaning less than 0.05% of tigecycline peak))
  RRT 0.55 MW = 583: BRL (BRL means below reporting limit (meaning less than 0.05% of tigecycline peak))
  RRT 0.58: 0.07%
  RRT 0.64 9-Amino: BRL (BRL means below reporting limit (meaning less than 0.05% of tigecycline peak))
  RRT 0.74 Epimer: 0.21%
  RRT 0.76: BRL (BRL means below reporting limit (meaning less than 0.05% of tigecycline peak))
